Entries after “also recorded” stand apart in the source; their conditions may differ.
Legend:
HSP27 = assay: PV IgG induced HSP27 phosphorylation in keratinocytes, immunoblot; details: preincubated 60 mins at 37° C. with inhibitor, then 25 μM PV IgG 30 mins
Protocol: Cells were preincubated for 60 minutes at 37° C. with the p38MAPK inhibitors SB202190 or SB203580, the protein kinase C inhibitors Calphostin C or H-7, or the phospholipase C inhibitor U-73122. PV IgG (25 μM) was then added and the cells were incubated for 30 mins at 37° C., and harvested in IEF lysis buffer. Extracts were separated on 10% SDS-PAGE gels followed by immunoblotting with anti-HSP27 and anti-phosphoHSP27 antibodies.
For inhibition studies, keratinocytes were preincubated for 60 mins at 37° C. with the p38MAPK inhibitors SB202190 (100 μM) or H-7 (10 μM), or the phospholipase C inhibitor U-73122 (4 μM), after which PV IgG was added to a final concentration of 25 μM, the cells incubated for 30 mins at 37° C., and harvested in IEF lysis buffer.

keratinocytes = assay: Keratin and actin reorganization in keratinocytes, confocal microscopy; type: cell-based, human; details: 25 μM PV IgG 6 hrs at 37° C.; SB202190 100 μM preincubated 60 mins
Protocol: FIGS. 5A-5C are data showing that PV IgG induced cytoskeletal reorganization can be prevented by inhibiting p38MAPK. […] Cells were stained with the indicated antibodies or fluorescein-phalloidin and analyzed by confocal microscopy.
At 37° C. Cells were fixed and stained with flourescein conjugated phalloidin (Molecular Probes, Eugene, Oreg., United States of America), pancytokeratin antibodies (clone AE1/AE3, Zymed, San Francisco, Calif., United States of America), or goat anti-human E-cadherin antibodies (R & D Systems, mc, Minneapolis, Minn., United States of America) as previously described (Hu et al., (2001) Experimental Nephrology 9, 156-164), followed by Cy2 and Cy3 conjugated secondary antibodies (Jackson Laboratories, West Grove, Pa., United States of America). Images were analyzed using a Leica SP2 AOBS confocal microscope (Leica, Bannockburn, Ill., United States of America) with an excitation wavelength of 488 nm and capture at 500-550 nm or an excitation wavelength of 561 nm and capture at 590-650 nm using a 63×objective with NA 1.4. Double labeled samples were checked for bleed though by turning off the longer wavelength laser and assaying for the absence of image. For 3 dimensional image reconstructions, serial sections were scanned at 0.244 μm and rendered using the program Volocity Version 3 (Improvision, Lexington, Mass., United States of America).

neonatal C57BL/6J mice = assay: Passive transfer PV mouse model, blister formation; type: in vivo
Source text: The passive transfer PV mouse model developed by Anhalt and Diaz (Anhalt, et al. (1992) New England Journal of Medicine 306, 1189-1196) was used to test the hypothesis that p38MAPK inhibitors can block blister formation in vivo. In this model, the IgG fraction from patients and control non-affected normal individuals was purified and passively transferred into neonatal mice (Anhalt, et al. (1992) New England Journal of Medicine 306, 1189-1196; Rock, et al. (1990) J of Clinical Investigation 85, 296-299).
For in vivo inhibitor studies, the mice were injected intradermally with PV and normal IgG (1.0 or 1.5 mg/gram body weight) as disclosed in Mascaro et al. (Clin Immunology & Immunopathology 85, 90-96 (1997)). The P38 MAPK inhibitors were administered intradermally in two doses. In the first dose, 6.25 μg SB202190 was administered two hours prior to intradermal injection of IgG. In the second dose, 6.25 μg SB202190 was mixed with PV or control IgG and injected intradermally. Each animal received a total inhibitor dose of 12.5 μg.

p38MAPK = p38MAPK phosphorylation in mouse skin extracts, immunoblot; type: in vivo; details: PV IgG 1.0 mg IgG/g intradermally; SB202190 6.25 μg twice; skin biopsies after 18 hours
Source text: FIG. 7A is an immunoblot showing LDH control, PV IgG, and PV IgG+SB202190 first equally loaded on and separated by SDS-PAGE, transferred to PVDF, and immunoblotted with antibodies to p38MAPK, phospho-p38MAPK or lactate dehydrogenase (LDH) as a loading control. Blots were developed by ECL reaction (Amersham, Piscataway, N.J., United States of America).
FIG. 7B is a bar graph illustrating signal intensity from the ECL reaction for each band from the immunoblot of FIG. 7A, quantified with a GeneGnome™ scanner (Syngene Bio Imaging, Frederick, Md., United States of America) using GeneSnap™ software (n=3, S.D. shown by error bars).

HSP25 = HSP25 phosphorylation in mouse skin extracts, 2D immunoblot; type: in vivo; details: PV IgG 1.0 mg IgG/g intradermally; SB202190 6.25 μg twice; skin biopsies after 18 hours
Protocol: Skin biopsies were obtained after 18 hours of treatment and extracted in IEF lysis buffer.
FIG. 7C is an autoradiogram of an immunoblot showing cell extracts (30 μg) prepared and separated in the first dimension using 7 cm pH 4-7, non-linear IPGphor strips (Amersham Biosciences, Inc.) and in the second dimension by 10% SDS-PAGE followed by immunoblotting with antibodies to murine HSP25 using methods known in the art (see Berkowitz et al. (2005) J Biol Chem 280, 23778-23784). […] P values were calculated using student's T-test.

[1] = test system: epidermal keratinocyte cell membranes; assay: Direct immunofluorescence of perilesional skin for bound PV IgG; details: direct immunofluorescence of mouse skin, PV IgG+SB202190 vs PV IgG
Source text: Perilesional skin biopsies were examined by direct immunofluorescence for the presence of PV IgG bound to the epidermal epithelium.

[2] = PV IgG intradermally, SB202190 two doses of 6.25 μg intradermally, after 18 hours
[3] = histology, PV IgG intradermally, SB202190 two doses of 6.25 μg intradermally, after 18 hours

CC1CNCCN1S(=O)(=O)c1cccc2cnccc12 (stereo not drawn) [H-7]
inhibition of PV IgG induced HSP27 phosphorylation (HSP27): No notable inhibition

Oc1ccc(-c2nc(-c3ccc(F)cc3)c(-c3ccncc3)[nH]2)cc1 [SB202190, 4-(4-Fluorophenyl)-2-(4-hydroxyphenyl)-5-(4-pyridyl)1H-imidazole]
actin reorganization (phalloidin staining) (keratinocytes): similarly prevented; also recorded: inhibited | keratin filament retraction (keratinocytes): prevented | suprabasal acantholysis leading to blister formation (neonatal C57BL/6J mice; PV IgG 1 mg IgG/g body weight, skin biopsies, hematoxylin and eosin): blocked | Nikolsky's sign (neonatal C57BL/6J mice; PV IgG 1.5 mg IgG/gram body weight intradermally, examined 18 hours later): negative Nikolsky's sign | blister development, clinically and histologically (neonatal C57BL/6J mice; PV IgG 1.0 or 1.5 mg/gram body weight intradermally, SB202190 total 12.5 μg, after 18 hours): failed to develop blisters | Numbers of Mice with Nikolsky Sign: Nikolsky Negative (neonatal C57BL/6J mice; [2]): 11 | Numbers of Mice with Nikolsky Sign: Nikolsky Positive (neonatal C57BL/6J mice; [2]): 1 | Numbers of Mice with Suprabasilar Acantholysis: Blisters Present (neonatal C57BL/6J mice; [3]): 1 | Numbers of Mice with Suprabasilar Acantholysis: No Blisters (neonatal C57BL/6J mice; [3]): 11 | p38MAPK phosphorylation in skin extracts (p38MAPK): prevented; also recorded: blocked | phosphorylation of the most negatively charged HSP25 isoform in skin extracts (HSP25): inhibited; also recorded: blocked | effect on binding of PV autoantibodies to epidermal keratinocyte cell surface [1]: did not prevent or alter the binding; also recorded: does not prevent binding

COc1ccc2c(c1)CC[C@@H]1[C@@H]2CC[C@]2(C)[C@@H](NCCCCCCN3C(=O)C=CC3=O)CC[C@@H]12 [U-73122]
inhibition of PV IgG induced HSP27 phosphorylation (HSP27): No notable inhibition

Calphostin C
inhibition of PV IgG induced HSP27 phosphorylation (HSP27): No notable inhibition
